# Assay results: patent publication US20060276393A1, “Novel compositions for preventing and treating neurodegenerative and blood coagulation disorders” (Sirtris Pharmaceuticals, Inc., priority 2005, published 2006)
# Key:
# recombinant human SIRT1 = molecular target: T1, recombinant human SIRT1 (Homo sapiens, UniProt Q96EB6); test: SIRT1 fluorescent deacetylation assay (p53-382 acetylated peptide); assay type: biochemical; settings: 25 μM NAD+, 25 μM p53-382 acetylated peptide, compounds at 100 μM
# T1 sequence (Q96EB6 1-747): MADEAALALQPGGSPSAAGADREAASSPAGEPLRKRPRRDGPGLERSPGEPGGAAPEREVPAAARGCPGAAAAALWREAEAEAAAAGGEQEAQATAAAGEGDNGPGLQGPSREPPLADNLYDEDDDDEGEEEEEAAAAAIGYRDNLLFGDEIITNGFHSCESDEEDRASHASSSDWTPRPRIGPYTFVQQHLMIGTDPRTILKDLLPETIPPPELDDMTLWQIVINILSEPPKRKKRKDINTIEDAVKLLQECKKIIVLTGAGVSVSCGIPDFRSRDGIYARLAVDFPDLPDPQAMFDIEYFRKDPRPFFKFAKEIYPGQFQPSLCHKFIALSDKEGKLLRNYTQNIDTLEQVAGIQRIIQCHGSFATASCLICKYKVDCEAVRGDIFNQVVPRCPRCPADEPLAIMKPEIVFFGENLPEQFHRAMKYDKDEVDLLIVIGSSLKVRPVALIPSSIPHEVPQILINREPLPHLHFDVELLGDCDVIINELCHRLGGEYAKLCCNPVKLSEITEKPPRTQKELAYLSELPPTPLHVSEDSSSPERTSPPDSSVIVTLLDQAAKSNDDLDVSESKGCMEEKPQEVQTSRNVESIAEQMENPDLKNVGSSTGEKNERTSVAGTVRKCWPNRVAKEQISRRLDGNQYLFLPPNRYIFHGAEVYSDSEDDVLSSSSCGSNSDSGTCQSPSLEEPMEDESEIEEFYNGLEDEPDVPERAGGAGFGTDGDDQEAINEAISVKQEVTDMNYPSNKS
# From the text: Lines represent non-linear least-squares fits to the Michaelis-Menten equation. […] Lines represent non-linear least-squares fits to the Michaelis-Menten equation. […] Error bars are standard errors of the mean.
# To identify compounds that modulate SIRT1 activity, a number of small molecule libraries were screened using a fluorescent deacetylation assay in 96-well plates^26. The substrate used in the assay was a fluorogenic peptide based on the sequence encompassing the p53-K382 acetylation site, a known target of SIRT1 in vivo^20,21,27. […] The small molecule libraries included analogues of nicotinamide, ε-acetyl lysine, NAD^+, nucleotides, nucleotide analogues and purinergic ligands.
# His6-tagged recombinant SIRT1 and GST-tagged recombinant Sir2 were prepared as previously described^26. From 0.1 to 1 μg of SIRT1 and 1.5 μg of Sir2 were used per deacetylation assay (in 50 μl total reaction) as previously described^26.
# Themed compound libraries (BIOMOL) were used for primary and secondary screening. Most polyphenol compounds were dissolved at 10 mM in dimethylsulfoxide (DMSO) on the day of the assay. For water soluble compounds and negative controls, 1% v/v DMSO was added to the assay. […] Unless otherwise indicated all initial rate measurements were means of three or more replicates, obtained with single incubation times, at which point 5% or less of the substrate initially present had been deacetylated. Calculation of net fluorescence increases included subtraction of a blank value, which in the case of Sir2 was obtained by omitting the enzyme from the reaction and in the case of SIRT1 by adding an inhibitor (200 μM suramin or 1 mM nicotinamide) to the reaction prior to the acetylated substrate. […] All error bars represent the standard error of the mean.
# C. elegans = C. elegans lifespan; assay type: in vivo; settings: N2 worms, E. coli as food
# Method: Thus, the presence of resveratrol in the growth media of C. elegans extends their lifespan.
# Bristol N2 (Caenorhabditis Genetics Center) was used as the wild-type strain. The sir-2.1 mutant strain was generated by backcrossing VC199 (sir-2.1(ok434)) to N2 four times. Cultures were grown on standard NGM media and maintained on E. coli strain OP50. For the lifespan assays, synchronized animals were transferred to treatment plates as young adults (2 d after hatching, day 0 of assay), and were transferred to fresh treatment plates every 2 days for the first 6 to 8 days of the assay. […] For some lifespan trials, heat-killed OP50 were used as a food source. OP50 cultures were heated to 65° C. for 30 minutes, then pelleted and resuspended in 1/10 volume in S Basal supplemented with 10 mM MgSO4. In all assays, worms were monitored daily for mortality by gently probing with a platinum pick. Assays were performed at 24° C. To assay worm feeding rates, worms at the indicated stages were placed on treatment plates (no FUdR) for 4-5 hours, then videoed for 1 minute using a Pixelink PL-662 camera. The frame rate was slowed and the pumping rate of the pharynx was counted. To assay fecundity, gravid hermaphrodites (5 per plate, raised from synchronized L1s on normal or treatment plates) were allowed to lay eggs on their respective media for 5 hours, and the total number of eggs was counted.
# [1] = molecular target: T2, SIRT1 deacetylase (BIOMOL) (Homo sapiens, UniProt Q96EB6); test: High-throughput SIRT1 screening protocol (ICCB library); assay type: biochemical; settings: positive controls; 200 μM NAD+, 5 μM Fluor de Lys-SIRT1; resveratrol 50 μM
# T2 construct: purchased BIOMOL
# T2 sequence (Q96EB6 1-747): T1 sequence (Q96EB6 1-747)
# Method: The reaction mixture contains (final): 0.5 units/reaction SIRT1 deacetylase (BIOMOL); 200 μM NAD^+; 5 μM Fluor de Lys-SIRT1 substrate (BIOMOL); buffer (25 mM Tris/Cl, pH 8.0, 137 mM NaCl, 2.7 mM KCl, 1 mM MgCl2, and 1 mg/ml BSA). In addition, a reaction mixture containing no enzyme was made so that each well receiving compound has a corresponding “no enzyme control” well. Reactions were performed in black 384 well plates (NUNC) in a final volume of 25 μl/well.
# The reactions were started by combining enzyme and substrate in a reaction mixture immediately prior to aliquoting in plates (or substrate only for “no enzyme control” plates). Mixture were aliquoted to plates using Biotek μfill (Biotek Instruments). Control mixtures were manually added to designated wells. A library compound was added at a desired concentration by pin transfer to both “with enzyme” and “no enzyme” plates. Compounds were added in at least triplicate (with enzyme reaction in duplicate and no enzyme controls) at a final concentration of roughly 50 μM. The plates were incubated at 37° C for 30-60 minutes. Then 25 μl of 1× Developer II (BIOMOL) plus 2 mM nicotinamide were added to all wells to stop the reactions. The reactions were left for at least 30 minutes at 37° C. for the signal to develop. The plates were read in a microplate-reading fluorometer capable of excitation at a wavelength in the range of 350-380 nm and detection of emitted light in the range of 440-460 nm. A read time of 0.1 sec per well was used.
# [2] = tested on: thoracic spinal cord of EAE SJL/J mice; test: EAE spinal cord white matter damage; assay type: in vivo, mouse; settings: FK506 5 mg/kg, significant
# From the text: At day 40 post-immunization, mice from each group are sacrificed with an overdose of ketamine/xylazine. Spinal cords are dissected, fixed in 10% buffered formalin, and embedded in paraffin. Five micron thick sections are stained with Hematoxylin and Eosin (H&E) and Luxol Fast Blue (LFB) to assess myelin loss. Bielshowesky's silver impregnation is used to evaluate axonal integrity. To asses the amount of axonal loss, paraffin sections are exposed to monoclonal antibodies against mouse non-phosphorylated neurofilament H (Clone SMI-32, Stemberger Monoclonals, Baltimore, USA) and monoclonal antibodies against APP (Clone 22C11, Chemicon). SMI-32 is detected with a Cy3-labeled antibody and visualized by fluorescence microscopy. Anti-APP antibodies are detected by incubation with ColonoPAP, and APP-positive axons are visualized with 3,3′-diaminobenzidine (DAB).
# The percentage of the spinal cord showing damage was determined in the cervical, thoracic and lumbar cord. At each level, regions in the 1) dorsal columns and 2) the lateral and ventral white matter tracts containing damaged fibers was circumscribed on photomontages (final magnification ×100) of the entire spinal cord. Damaged areas in each of the two regions were measured using a SummaSketch III (Summagraphics, Seymour, Conn.) digitizing tablet and BIOQUANT Classic 95 software (R&M Biometrics, Nashville, Tenn.). Measurements were also be made of the total area (damaged and nondamaged) of the 1) dorsal columns and 2) the lateral and ventral columns. For each section (one section per animal), the cumulative percent lesion areas were calculated for each region (dorsal column, lateral and ventral columns).
# [3] = tested on: Experimental autoimmune encephalomyelitis (EAE) in SJL/J mice; settings: FK506 5 mg/kg/day
# S. cerevisiae = test: Yeast replicative lifespan; assay type: cell-based
# Method: Average lifespan for wild type, 22.9 generations, quercetin, 23.4; piceatannol. […]
# All yeast strains were grown at 30° C. in complete yeast extract/bactopeptone, 2.0% (w/v) glucose (YPD) medium except where stated otherwise. Calorie restriction was induced in 0.5% glucose. Synthetic complete (SC) medium consisted of 1.67% yeast nitrogen base, 2% glucose, 40 mg/litre each of auxotrophic markers. SIR2 was integrated in extra copy and disrupted as described^5. Other strains are described elsewhere^26. For cellular deacetylation assays, HeLa S3 cells were used. U20S osteosarcoma and human embryonic kidney (HEK 293) cells were cultured adherently in Dulbecco's Modified Eagle's Medium (DMEM) containing 10% fetal calf serum (FCS) with 1.0% glutamine and 1.0% penecillin/streptomycin. HEK 293 overexpressing dominant negative SIRT1 H363Y was a gift of R. Frye (U. Pittsburgh).
# Lifespan measurements were performed using PSY316AT MATα as previously described^35. All compounds for lifespan analyses were dissolved in 95% ethanol and plates were dried and used within 24 hours. Prior to lifespan analysis, cells were pre-incubated on their respective media for at least 15 hours. Following transfer to a new plate, cells were equilibrated on the medium for a minimum of 4 hours prior to micro-manipulating them. At least 30 cells were examined per experiment and each experiment was performed at least twice. Statistical significance of lifespan differences was determined using the Wilcoxon rank sum test. Differences are stated to be significant when the confidence is higher than 95%.
# HeLa S3 cells = test: Cellular deacetylase assay (FdL, TSA-insensitive signal); assay type: cell-based, human; settings: 500 μM compound, 200 μM FdL, 1 μM TSA, 1 hour
# Method: FdL (200 μM) is added to growth media and cells incubated for 1-3 hours to allow FdL to enter the cells and the lysine-deacetylated product (deAc-FdL) to accumulate intracellularly. Cells are lysed with detergent in the presence of 1 μM TSA, 1 mM nicotinamide. Addition of the non-cell-permeable Developer (BIOMOL) releases a fluorophor, specifically from deAc-FdL. b, SIRT1 activating polyphenols can stimulate TSA-insensitive, FdL deacetylation by HeLa S3 cells. Cells were grown adherently in DMEM/10% FCS and treated for 1 hour with 200 μM FdL, 1 μM TSA and either vehicle (0.5% final DMSO, Control) or 500 μM of the indicated compound. Intracellular accumulation of deAc-FdL was then determined as described briefly in a. […] Lysates were prepared and analyzed as above. […]
# Themed compound libraries (BIOMOL) were used for primary and secondary screening. […] In vitro fluorescence assay results were read in white ½-volume 96-well microplates (Coming Costar 3693) with a CytoFluor™. II fluorescence plate reader (PerSeptive Biosystems, Ex. 360 nm, Em. 460 nm, gain=85). HeLa cells were grown and the cellular deacetylation assays were performed and read, as above, but in full-volume 96-well microplates (Coming Costar 3595). […]
# [4] = molecular target: p53-382 acetylated peptide (human) (UniProt P04637)
compound,measurement,setting,value
"COc1ccc(/C=C/c2cc(O)cc(O)c2)cc1 [BML-233, 3,5-Dihydroxy-4′-methoxy-trans-stilbene]",SIRT1 stimulating activity (in words),recombinant human SIRT1,strong activator of sirtuins
same,% change in C. elegans lifespan relative to untreated organisms,C. elegans; (10),70%
same,% change in C. elegans lifespan relative to untreated organisms,C. elegans; (500),50%
same,activated SIRT1,[1],2.1 fold
C=CC[C@@H]1/C=C(\C)C[C@H](C)C[C@H](OC)[C@H]2O[C@@](O)(C(=O)C(=O)N3CCCC[C@H]3C(=O)O[C@H](/C(C)=C/[C@@H]3CC[C@@H](O)[C@H](OC)C3)[C@H](C)[C@@H](O)CC1=O)[C@H](C)C[C@@H]2OC [FK506],"reduction of extent of damage in dorsal, lateral and ventral white matter",[2],over 90%
same,Mean EAE Score - Last 10 Days,[3]; vehicle 23.00,7.75
same,Mean total EAE score,[3]; vehicle 72.38,25.38
"O=C(/C=C/c1ccc(O)c(O)c1)c1ccc(O)cc1O [butein, 3,4,2′,4′-Tetrahydroxychalcone]",increase of average lifespan,S. cerevisiae; 10 μM,31%
same,maximum lifespan (in words),S. cerevisiae; 10 μM,significantly increased maximum lifespan
same,Average lifespan,"S. cerevisiae; 10 μM compound, 2% glucose medium, wild type untreated 22.9",35.5 generations
same,TSA-insensitive cellular deacetylation signal,HeLa S3 cells,no effect on the cellular signal
His6-tagged recombinant SIRT1 (enzyme),"Km for the acetylated peptide (initial deacetylation rate, fluorescence)",[4],64 µM
